Activity calls are given as the source filed them. The rule behind the calls is not given here.
Legend:
[1] = tested on: HepG2; test: Cytotoxic activity against human HepG2 cells assessed as growth inhibition after 48 hrs by MTT assay; type: functional, cell-based; settings: for IC50: Homo sapiens, HepG2, 48 h
[2] = tested on: Hep 3B2; test: Cytotoxic activity against human Hep3B cells assessed as growth inhibition after 48 hrs by MTT assay; type: functional, cell-based; settings: for IC50: Homo sapiens, Hep3B, 48 h
[3] = tested on: HepG2; test: Cytotoxic activity against human HepG2 cells assessed as growth inhibition at 100 uM after 48 hrs by MTT assay; type: functional; settings: HepG2, 48 h, read-out: GI
[4] = tested on: HepG2; test: Cytotoxic activity against human HepG2 cells assessed as growth inhibition at 50 uM after 48 hrs by MTT assay; type: functional; settings: HepG2, 48 h, read-out: GI
[5] = tested on: HepG2; test: Cytotoxic activity against human HepG2 cells assessed as growth inhibition at 25 uM after 48 hrs by MTT assay; type: functional; settings: HepG2, 48 h, read-out: GI
[6] = tested on: HepG2; test: Cytotoxic activity against human HepG2 cells assessed as growth inhibition at 12.5 uM after 48 hrs by MTT assay; type: functional; settings: HepG2, 48 h, read-out: GI
[7] = tested on: HepG2; test: Cytotoxic activity against human HepG2 cells assessed as growth inhibition at 6.25 uM after 48 hrs by MTT assay; type: functional; settings: HepG2, 48 h, read-out: GI
[8] = tested on: Hep 3B2; test: Cytotoxic activity against human Hep3B cells assessed as growth inhibition at 100 uM after 48 hrs by MTT assay; type: functional; settings: read-out: GI
[9] = tested on: Hep 3B2; test: Cytotoxic activity against human Hep3B cells assessed as growth inhibition at 50 uM after 48 hrs by MTT assay; type: functional; settings: read-out: GI
[10] = tested on: Hep 3B2; test: Cytotoxic activity against human Hep3B cells assessed as growth inhibition at 25 uM after 48 hrs by MTT assay; type: functional; settings: read-out: GI
[11] = tested on: Hep 3B2; test: Cytotoxic activity against human Hep3B cells assessed as growth inhibition at 12.5 uM after 48 hrs by MTT assay; type: functional; settings: read-out: GI
[12] = tested on: Hep 3B2; test: Cytotoxic activity against human Hep3B cells assessed as growth inhibition at 6.25 uM after 48 hrs by MTT assay; type: functional; settings: read-out: GI
[13] = tested on: HepG2; test: Induction of apoptosis in human HepG2 cells assessed as increase in cleaved-caspase 9 level at 60 uM after 48 hrs by Western blot analysis; type: functional, cell-based
[14] = tested on: HepG2; test: Induction of apoptosis in human HepG2 cells assessed as increase in cleaved-caspase 7 level at 60 uM after 48 hrs by Western blot analysis; type: functional, cell-based
[15] = tested on: HepG2; test: Induction of apoptosis in human HepG2 cells assessed as decrease in PARP level at 60 uM after 48 hrs by Western blot analysis; type: functional, cell-based
[16] = tested on: HepG2; test: Induction of apoptosis in human HepG2 cells assessed as decrease in pro-caspase 9 level at 60 uM after 48 hrs by Western blot analysis; type: functional, cell-based
[17] = tested on: HepG2; test: Induction of apoptosis in human HepG2 cells assessed as decrease in pro-caspase 7 level at 60 uM after 48 hrs by Western blot analysis; type: functional, cell-based
[18] = tested on: HepG2; test: Induction of apoptosis in human HepG2 cells assessed as decrease in Bcl-2 level at 60 uM after 48 hrs by Western blot analysis; type: functional, cell-based
[19] = tested on: HepG2; test: Induction of apoptosis in human HepG2 cells assessed as increase in Bax level at 60 uM after 48 hrs by Western blot analysis; type: functional, cell-based
[20] = tested on: HepG2; test: Induction of apoptosis in human HepG2 cells assessed as formation of apoptotic bodies at 60 uM after 48 hrs by AO staining-based phase contrast microscopic analysis; type: functional, cell-based
[21] = tested on: Hep 3B2; test: Induction of apoptosis in human Hep3B cells assessed as cell shrinkage at 70 uM after 48 hrs by AO staining-based phase contrast microscopic analysis; type: functional
[22] = tested on: HepG2; test: Induction of apoptosis in human HepG2 cells assessed as chromatin condensation at 60 uM after 48 hrs by AO staining-based phase contrast microscopic analysis; type: functional, cell-based
[23] = tested on: Hep 3B2; test: Induction of apoptosis in human Hep3B cells assessed as chromatin condensation at 70 uM after 48 hrs by AO staining-based phase contrast microscopic analysis; type: functional, cell-based
[24] = tested on: HepG2; test: Induction of apoptosis in human HepG2 cells assessed as nuclear fragmentation at 60 uM after 48 hrs by AO staining-based phase contrast microscopic analysis; type: functional, cell-based
[25] = tested on: Hep 3B2; test: Induction of apoptosis in human Hep3B cells assessed as nuclear fragmentation at 70 uM after 48 hrs by AO staining-based phase contrast microscopic analysis; type: functional, cell-based
[26] = tested on: HepG2; test: Induction of apoptosis in human HepG2 cells assessed as increase in cleaved PARP level at 60 uM after 48 hrs by Western blot analysis; type: functional, cell-based
[27] = tested on: Hep 3B2; test: Induction of apoptosis in human Hep3B cells assessed as decrease in Bcl-2 level at 70 uM after 48 hrs by Western blot analysis; type: functional, cell-based
[28] = tested on: Hep 3B2; test: Induction of apoptosis in human Hep3B cells assessed as increase in Bax level at 70 uM after 48 hrs by Western blot analysis; type: functional, cell-based
[29] = tested on: Hep 3B2; test: Induction of apoptosis in human Hep3B cells assessed as decrease in pro-caspase 7 level at 70 uM after 48 hrs by Western blot analysis; type: functional, cell-based
[30] = tested on: Hep 3B2; test: Induction of apoptosis in human Hep3B cells assessed as decrease in pro-caspase 9 level at 70 uM after 48 hrs by Western blot analysis; type: functional, cell-based
[31] = tested on: Hep 3B2; test: Induction of apoptosis in human Hep3B cells assessed as decrease in PARP level at 70 uM after 48 hrs by Western blot analysis; type: functional, cell-based
[32] = tested on: Hep 3B2; test: Induction of apoptosis in human Hep3B cells assessed as increase in cleaved-caspase 7 level at 70 uM after 48 hrs by Western blot analysis; type: functional, cell-based
[33] = tested on: Hep 3B2; test: Induction of apoptosis in human Hep3B cells assessed as increase in cleaved-caspase 9 level at 70 uM after 48 hrs by Western blot analysis; type: functional, cell-based
[34] = tested on: Hep 3B2; test: Induction of apoptosis in human Hep3B cells assessed as increase in cleaved PARP level at 70 uM after 48 hrs by Western blot analysis; type: functional, cell-based
[35] = tested on: Hep 3B2; test: Induction of apoptosis in human Hep3B cells assessed as cell shrinkage at 50 uM after 48 hrs by AO staining-based phase contrast microscopic analysis; type: functional
[36] = tested on: Hep 3B2; test: Induction of apoptosis in human Hep3B cells assessed as chromatin condensation at 50 uM after 48 hrs by AO staining-based phase contrast microscopic analysis; type: functional, cell-based
[37] = tested on: Hep 3B2; test: Induction of apoptosis in human Hep3B cells assessed as nuclear fragmentation at 50 uM after 48 hrs by AO staining-based phase contrast microscopic analysis; type: functional, cell-based
[38] = tested on: Hep 3B2; test: Induction of apoptosis in human Hep3B cells assessed as decrease in Bcl-2 level at 50 uM after 48 hrs by Western blot analysis; type: functional, cell-based
[39] = tested on: Hep 3B2; test: Induction of apoptosis in human Hep3B cells assessed as increase in Bax level at 50 uM after 48 hrs by Western blot analysis; type: functional, cell-based
[40] = tested on: Hep 3B2; test: Induction of apoptosis in human Hep3B cells assessed as decrease in pro-caspase 7 level at 50 uM after 48 hrs by Western blot analysis; type: functional, cell-based
[41] = tested on: Hep 3B2; test: Induction of apoptosis in human Hep3B cells assessed as decrease in pro-caspase 9 level at 50 uM after 48 hrs by Western blot analysis; type: functional, cell-based
[42] = tested on: Hep 3B2; test: Induction of apoptosis in human Hep3B cells assessed as decrease in PARP level at 50 uM after 48 hrs by Western blot analysis; type: functional, cell-based
[43] = tested on: Hep 3B2; test: Induction of apoptosis in human Hep3B cells assessed as increase in cleaved-caspase 7 level at 50 uM after 48 hrs by Western blot analysis; type: functional, cell-based
[44] = tested on: Hep 3B2; test: Induction of apoptosis in human Hep3B cells assessed as increase in cleaved-caspase 9 level at 50 uM after 48 hrs by Western blot analysis; type: functional, cell-based
[45] = tested on: Hep 3B2; test: Induction of apoptosis in human Hep3B cells assessed as increase in cleaved PARP level at 50 uM after 48 hrs by Western blot analysis; type: functional, cell-based

| SMILES | growth inhibition (GI) [1] | growth inhibition (GI) [2] | IC50 [1] | IC50 [2] | inhibition of growth at 100 µM [3] | inhibition of growth at 50 µM [4] | inhibition of growth at 25 µM [5] | inhibition of growth at 12.5 µM [6] | inhibition of growth at 6.25 µM [7] | inhibition of growth at 100 µM [8] | inhibition of growth at 50 µM [9] | inhibition of growth at 25 µM [10] | inhibition of growth at 12.5 µM [11] | inhibition of growth at 6.25 µM [12] | Activity [13] | Activity [14] | Activity [15] | Activity [16] | Activity [17] | Activity [18] | further results |
| --- | --- | --- | --- | --- | --- | --- | --- | --- | --- | --- | --- | --- | --- | --- | --- | --- | --- | --- | --- | --- | --- |
| COC(=O)c1ccc(OCCC(C)CO)cc1 (stereo not given) | -11.27% | 19.85% |  |  |  |  |  |  |  |  |  |  |  |  |  |  |  |  |  |  |  |
| O=c1[nH]cc(F)c(=O)[nH]1 [FLUOROURACIL] | 51.78% | 56.74% | 32.6 to 49.7 µM | 10.5 to 11.9 µM | 51.2% | 47.3% | 39.2% | 32.9% | 19.3% | 57% | 54.5% | 51.7% | 50.6% | 48.9% |  |  |  |  |  |  |  |
| CC(CO)CCOc1ccc(/C=C/C=O)cc1 (stereo not given) | 83.9% | 95.08% | 58.6 µM | 69.9 µM | 80% | 57% | 14.1% | 0.24% | 6.6% | 85.8% | 28.9% | 0.48% | -2.42% | -4.07% | Active | Active | Active | Active | Active | Active | Activity [19]: Active; Activity [20]: Active; Activity [21]: Active; Activity [22]: Active; Activity [23]: Active; Activity [24]: Active; Activity [25]: Active; Activity [26]: Active; Activity [27]: Active; Activity [28]: Active; Activity [29]: Active; Activity [30]: Active; Activity [31]: Active; Activity [32]: Active; Activity [33]: Active; Activity [34]: Active |
| C/C(=C\COc1ccc(/C=C/C=O)cc1)CO | 87.79% | 93.78% | 63.7 µM | 46.5 µM | 69.2% | 52% | 7.01% | 12.2% | -9.7% | 91.5% | 77.7% | 11.6% | 9.1% | -4.83% | Active | Active | Active | Active | Active | Active | Activity [19]: Active; Activity [20]: Active; Activity [22]: Active; Activity [24]: Active; Activity [26]: Active; Activity [35]: Active; Activity [36]: Active; Activity [37]: Active; Activity [38]: Active; Activity [39]: Active; Activity [40]: Active; Activity [41]: Active; Activity [42]: Active; Activity [43]: Active; Activity [44]: Active; Activity [45]: Active |
| COC(=O)/C=C/c1ccc(OC/C=C(\C)CO)cc1 | 86.42% | 26.16% |  |  |  |  |  |  |  |  |  |  |  |  |  |  |  |  |  |  |  |
